From ChEMBL document CHEMBL6074631, “Design, synthesis, and evaluation of pyranochromene derivatives as membrane targeting antibacterials against Gram-positive bacteria” (Bioorg Med Chem Lett, 2024)
Converted amounts (≈) assume the structure as drawn. The source made the active and inactive calls. No cut-off for these calls is given here.

Legend:
Cell membrane [1] = assay: Induction of cell membrane permeabilization in Staphylococcus aureus ATCC43300 assessed as fold increase in fluorescence intensity at 16 ug/ml by propidium iodide dye-based fluorescence assay; type: subcellular; settings: dose 16.0 µg/ml
Cell membrane [2] = assay: Induction of cell membrane permeabilization in Staphylococcus aureus ATCC43300 assessed as increase in fluorescence intensity by propidium iodide dye-based fluorescence assay; type: subcellular; settings: dose 2-16 µg/ml
[3] = tested on: Staphylococcus epidermidis; assay: Antibacterial activity against vancomycin-susceptible Staphylococcus epidermidis ATCC12228 assessed as reduction in bacterial growth by broth microdilution assay; type: functional
[4] = Hemolytic activity in RBC (unknown origin) assessed as hemolysis; type: toxicity, cell-based
Cell membrane [5] = assay: Induction of cell membrane disruption in Staphylococcus aureus ATCC43300 assessed as increase in protein leakage; type: subcellular; settings: dose 2-16 µg/ml
Staphylococcus aureus [6] = assay: Bactericidal activity against Staphylococcus aureus ATCC43300 measured upto 12 hrs by time kill assay; type: functional, organism-based; settings: dose 2-16 µg/ml
Klebsiella pneumoniae = assay: Antibacterial activity against erythromycin-susceptible Klebsiella pneumoniae ATCC10031 assessed as reduction in bacterial growth by broth microdilution assay; type: functional
Staphylococcus aureus [7] = assay: Antibacterial activity against Staphylococcus aureus ATCC31007 assessed as reduction in bacterial growth by broth microdilution assay; type: functional
Staphylococcus aureus [8] = assay: Bactericidal activity against Staphylococcus aureus ATCC43300 assessed as log reduction in CFU at 16 ug/ml by time kill assay; type: functional; settings: dose 16 µg/ml
Staphylococcus aureus [9] = assay: Bactericidal activity against Staphylococcus aureus ATCC43300 assessed as eradication of bacterial cell at 16 ug/ml measured within 8 hrs by time kill assay relative to control; type: functional; settings: dose 16 µg/ml
Escherichia coli = assay: Antibacterial activity against Escherichia coli ATCC25922 assessed as reduction in bacterial growth by broth microdilution assay; type: functional
Cell membrane [10] = assay: Induction of cell membrane disruption in Staphylococcus aureus ATCC43300 assessed as increase in DNA leakage; type: subcellular; settings: dose 2-16 µg/ml
Cell membrane [11] = assay: Induction of cytoplasmic membrane depolarization in Staphylococcus aureus ATCC43300 assessed as fold increase in fluorescence signal at 16 ug/ml measured at 20 mins DiSC3(5) dye-based fluorescence assay; type: subcellular; settings: dose 16.0 µg/ml
Staphylococcus aureus [12] = assay: Bactericidal activity against Staphylococcus aureus ATCC43300 at 2 to 16 ug/ml by time kill assay; type: functional, organism-based; settings: dose 2-16 µg/ml, time <= 12.0 hrs
Staphylococcus aureus [13] = assay: Antibacterial activity against Staphylococcus aureus ATCC25923 assessed as reduction in bacterial growth by broth microdilution assay; type: functional
Staphylococcus aureus [14] = assay: Antibacterial activity against Staphylococcus aureus ATCC43300 measured after 20 passages; type: functional, organism-based
Bacillus subtilis = assay: Antibacterial activity against […] Bacillus subtilis ATCC9372 assessed as reduction in bacterial growth by broth microdilution assay; type: functional
Cell membrane [15] = assay: Disruption of cell membrane integrity in Staphylococcus aureus ATCC43300 assessed as blue fluorescence by DAPI staining based fluorescence assay; type: subcellular
Cell membrane [16] = assay: Disruption of cell membrane integrity in Staphylococcus aureus ATCC43300 assessed as red fluorescence by DAPI staining based fluorescence assay; type: subcellular
Enterococcus faecalis = assay: Antibacterial activity against penicillin-susceptible Enterococcus faecalis ATCC29212 assessed as reduction in bacterial growth by broth microdilution assay; type: functional
Cell membrane [17] = assay: Induction of cytoplasmic membrane depolarization in Staphylococcus aureus ATCC43300 assessed as fold increase in fluorescence signal measured upto 20 mins DiSC3(5) dye-based fluorescence assay; type: subcellular; settings: dose 2-16 µg/ml
Pseudomonas aeruginosa = assay: Antibacterial activity against penicillin-susceptible Pseudomonas aeruginosa ATCC27853 assessed as reduction in bacterial growth by broth microdilution assay; type: functional
Cell membrane [18] = assay: Induction of cell membrane disruption in Staphylococcus aureus ATCC43300 assessed as fold increase in DNA leakage at 16 ug/ml; type: subcellular; settings: dose 16.0 µg/ml
Staphylococcus aureus [19] = assay: Drug resistance, ratio of MIC for Staphylococcus aureus ATCC43300 after 20 passages exposure to MIC for Staphylococcus aureus ATCC43300 after first exposure; type: functional
Staphylococcus aureus [20] = assay: Bactericidal activity against Staphylococcus aureus ATCC43300 assessed as reduction in bacterial count at 16 ug/ml measured within 4 hrs by time kill assay relative to control; type: functional; parameters: scale not given: the % may be the effect or the level left; settings: dose 16 µg/ml
Staphylococcus aureus [21] = assay: Antibacterial activity against […] Staphylococcus aureus ATCC43300 assessed as reduction in bacterial growth by broth microdilution assay; type: functional
Acinetobacter baumannii = assay: Antibacterial activity against Acinetobacter baumannii ATCC19606 assessed as reduction in bacterial growth by broth microdilution assay; type: functional
Cell membrane [22] = assay: Induction of cell membrane disruption in Staphylococcus aureus ATCC43300 assessed as fold increase in protein leakage at 16 ug/ml; type: subcellular; settings: dose 16.0 µg/ml
Staphylococcus aureus [23] = assay: Drug resistance, ratio of MIC for Staphylococcus aureus ATCC43300 after 18 passages exposure to MIC for Staphylococcus aureus ATCC43300 after first exposure; type: functional

Structure (SMILES): CC(=O)c1c(OCC(=O)NCCN(C)C)c2c(c3c1OC(C)(CCC=C(C)C)C=C3)OC(C)(CCC=C(C)C)C=C2 (stereo not given)
- fold change (FC) (Cell membrane [1]): 2.3
- Activity (Cell membrane [2]): Dose-dependent-effect
- MIC [3]: 1 µg/mL (≈ 1.77 µM)
- HC90 ([4]; rbc): 205.8 µg/mL
- HC50 ([4]; red blood cells): 112 µg/mL
- Activity (Cell membrane [5]): Dose-dependent-effect
- Activity (Staphylococcus aureus [6]): Dose-dependent-effect
- MIC (Klebsiella pneumoniae): > 128 µg/mL
- MIC (Staphylococcus aureus [7]): 2 µg/mL (≈ 3.54 µM)
- log(activity) (Staphylococcus aureus [8]): 8.78
- Activity (Staphylococcus aureus [9]): 100%
- MIC (Escherichia coli): > 128 µg/mL
- Activity (Cell membrane [10]): Dose-dependent-effect
- fold change (FC) (Cell membrane [11]): 4.7
- Activity (Staphylococcus aureus [12]): Time-dependent-effect
- MIC (Staphylococcus aureus [13]): 4 µg/mL (≈ 7.08 µM)
- Activity (Staphylococcus aureus [14]): inactive
- MIC (Bacillus subtilis): 2 µg/mL (≈ 3.54 µM)
- Activity (Cell membrane [15]): Active
- Activity (Cell membrane [16]): Active
- MIC (Enterococcus faecalis): 1 µg/mL (≈ 1.77 µM)
- Activity (Cell membrane [17]): Dose-dependent-effect
- MIC (Pseudomonas aeruginosa): > 128 µg/mL
- fold change (FC) (Cell membrane [18]): 6.7
- fold change (FC) (Staphylococcus aureus [19]): 4
- Activity (Staphylococcus aureus [20]): 99.9%
- MIC (Staphylococcus aureus [21]): 2 µg/mL (≈ 3.54 µM)
- MIC (Acinetobacter baumannii): 128 µg/mL (≈ 227 µM)
- fold change (FC) (Cell membrane [22]): 6.3

Structure (SMILES): CCn1cc(C(=O)O)c(=O)c2cc(F)c(N3CCNCC3)cc21 [NORFLOXACIN]
- fold change (FC) (Staphylococcus aureus [23]): 256
